Non-standard residues stand in square brackets, D forms with d. Residues, ends and D or L forms follow the SMILES beside them. No end group written: not given here.
Tested on: P450Blt (CYP1251 C3)
Test: Small scale enzymatic cyclisation
Assay type: biochemical, Micromonospora sp. MW-13
Conditions: for P450Blt-catalysed cyclisation, result in words: small scale enzymatic cyclisation, LCMS; for loss of P450Blt cyclisation activity compared to 1: fold reduction versus 1

| Compound | P450Blt-catalysed cyclisation, result in words | also measured |
| --- | --- | --- |
| CSCC[C@H](N)C(=O)N[C@@H](CCCNC(=N)N)C(=O)N[C@@H](Cc1ccc(O)cc1)C(=O)N[C@@H](CC(C)C)C(=O)N[C@H](Cc1c[nH]cn1)C(=O)O [compound 17] (H-MRYL[dH]-OH) | – | conversion relative to that of 1 (relative to 1): > 10% |
| fMRYLH-OH [f-1] | did not affect cyclisation | – |
| MSYLH-OH [compound 5] | – | loss of P450Blt cyclisation activity compared to 1: ≈ 6 fold |
| RYLH-OH [compound 2] | significantly reduced activity | – |
| MRYWH-OH [compound 8] | almost totally abolished activity | – |
| MSYDH-OH [compound 7] | no further reduction in cyclisation than for 5 alone | – |
| MRYLW [compound 24] | very effective | level of cyclisation as fraction of that of 1 (relative to 1): 2/3 |
| MNYLH-OH [compound 6] | – | loss of P450Blt cyclisation activity compared to 1: ≈ 2 fold |

Source: PMC9542247 (Angewandte Chemie (International Ed. in English), 2022)
